How the values were obtained:
[1] = biological target: T1, c-Met (phospho-c-Met) in HT29 cells (Homo sapiens, UniProt P08581); test: c-Met Cellular Activity/Autophosphorylation Assay, HT29 cells; assay type: cell-based
T1 construct: endogenous in cells; host or cells: HT29, A549 (HGF-stimulated), GTL-16
Procedure: (§1) HT29 and GTL-16 cells were serum starved for one hour in media containing 0.05% BSA and varying concentrations of Example compounds (1-10 μM). A549 cells were serum starved overnight in media containing 0.05% BSA then treated for one hour with Example compounds followed by a 15 minute stimulation with 50 ng/mL HGF (Peprotech, Rocky Hill, N.J.), respectively. Samples were resolved by electrophoresis on a 3-8% Tris-Acetate gel (40 ma/gel) and then transferred to a nitrocellulose membrane. Membranes were blocked for one hour at room temperature in Odyssey Blocking Buffer (Licor #927-40000) diluted 1:1 with 1×TBS. Membranes were then co-incubated overnight at 4° C. with primary antibodies [total Met (Cell Signaling, #3127) and Phospho-Met (Biosource, #44-888G) 1:1000 each in Odyssey Blocking Buffer diluted 1:1 with 1×TBS-T 0.05%]. The next day, membranes were washed and co-incubated with secondary antibodies [Goat anti mouse IRDye800 (Rockland, #610-132-121) and Goat anti rabbit Alexa fluor 700 (Molecular Probes, #A21038) 1:10,000] in Odyssey Blocking Buffer diluted 1:1 with 1×TBS-T 0.05% for one hour at room temperature protected from light. Blots were then washed and read on the Odyssey Infrared Imager. Total c-Met signal was visualized at 800 nm detection and phospho-c-Met signal was visualized at 700 nm detection.

[2] = biological target: T2, c-Met (cytoplasmic domain) (Homo sapiens, UniProt P08581); test: c-Met Kinase Assay (ELISA/TRF, PLC-γ substrate); assay type: biochemical; details: 3 μM ATP (Km level); read-out: c-Met Kinase Inhibition (IC50)
T2 construct: Reactions were initiated with 30 ng/mL c-Met (cytoplasmic domain, Invitrogen Corporation #PV3143); purchased Invitrogen Corporation PV3143
T2 sequence (P08581 956-1390 limits assumed): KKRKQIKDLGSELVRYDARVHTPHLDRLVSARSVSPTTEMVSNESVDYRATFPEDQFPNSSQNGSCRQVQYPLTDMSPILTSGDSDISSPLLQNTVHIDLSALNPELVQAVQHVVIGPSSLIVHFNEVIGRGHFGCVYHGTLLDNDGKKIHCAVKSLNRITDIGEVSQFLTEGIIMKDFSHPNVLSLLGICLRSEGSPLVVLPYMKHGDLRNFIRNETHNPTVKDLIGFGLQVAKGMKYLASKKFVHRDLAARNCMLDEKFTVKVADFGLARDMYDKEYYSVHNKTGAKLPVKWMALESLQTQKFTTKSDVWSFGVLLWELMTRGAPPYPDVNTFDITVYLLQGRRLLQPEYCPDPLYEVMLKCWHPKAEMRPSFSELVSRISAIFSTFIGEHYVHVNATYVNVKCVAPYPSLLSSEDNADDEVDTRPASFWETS
In short: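 Readout is TRF of europium anti-phosphotyrosine (PT66) bound to GST–PLC-γ substrate coated at 10 μg/mL, after a 15 min, 37 °C reaction started with 30 ng/mL c-Met cytoplasmic domain. Percent inhibition plotted against log compound concentration and fitted (variable slope) for IC50.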

[3] = biological target: baculovirus-expressed ALK (Homo sapiens, UniProt Q9UM73); test: ALK Kinase Assay (ELISA/TRF, PLC-γ substrate); assay type: biochemical; details: read-out: ALK Kinase Inhibition (IC50); further: 1 µM ATP (Km level)
In short: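 Substrate phosphorylation by 30 ng/ml ALK (37° C, 15 min) on PLC-γ-coated wells is quantified via time-resolved europium fluorescence from an anti-phosphotyrosine antibody. Percent inhibition against log10 compound concentration yields IC50 by nonlinear regression.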

[4] = biological target: T3, c-Met (phospho-c-Met) in GTL-16 cells (Homo sapiens, UniProt P08581); test: c-Met Cellular Activity/Autophosphorylation Assay, GTL-16 cells; assay type: cell-based
T3 construct: endogenous in cells; host or cells: HT29, A549 (HGF-stimulated), GTL-16
T3 sequence (P08581 25-1390): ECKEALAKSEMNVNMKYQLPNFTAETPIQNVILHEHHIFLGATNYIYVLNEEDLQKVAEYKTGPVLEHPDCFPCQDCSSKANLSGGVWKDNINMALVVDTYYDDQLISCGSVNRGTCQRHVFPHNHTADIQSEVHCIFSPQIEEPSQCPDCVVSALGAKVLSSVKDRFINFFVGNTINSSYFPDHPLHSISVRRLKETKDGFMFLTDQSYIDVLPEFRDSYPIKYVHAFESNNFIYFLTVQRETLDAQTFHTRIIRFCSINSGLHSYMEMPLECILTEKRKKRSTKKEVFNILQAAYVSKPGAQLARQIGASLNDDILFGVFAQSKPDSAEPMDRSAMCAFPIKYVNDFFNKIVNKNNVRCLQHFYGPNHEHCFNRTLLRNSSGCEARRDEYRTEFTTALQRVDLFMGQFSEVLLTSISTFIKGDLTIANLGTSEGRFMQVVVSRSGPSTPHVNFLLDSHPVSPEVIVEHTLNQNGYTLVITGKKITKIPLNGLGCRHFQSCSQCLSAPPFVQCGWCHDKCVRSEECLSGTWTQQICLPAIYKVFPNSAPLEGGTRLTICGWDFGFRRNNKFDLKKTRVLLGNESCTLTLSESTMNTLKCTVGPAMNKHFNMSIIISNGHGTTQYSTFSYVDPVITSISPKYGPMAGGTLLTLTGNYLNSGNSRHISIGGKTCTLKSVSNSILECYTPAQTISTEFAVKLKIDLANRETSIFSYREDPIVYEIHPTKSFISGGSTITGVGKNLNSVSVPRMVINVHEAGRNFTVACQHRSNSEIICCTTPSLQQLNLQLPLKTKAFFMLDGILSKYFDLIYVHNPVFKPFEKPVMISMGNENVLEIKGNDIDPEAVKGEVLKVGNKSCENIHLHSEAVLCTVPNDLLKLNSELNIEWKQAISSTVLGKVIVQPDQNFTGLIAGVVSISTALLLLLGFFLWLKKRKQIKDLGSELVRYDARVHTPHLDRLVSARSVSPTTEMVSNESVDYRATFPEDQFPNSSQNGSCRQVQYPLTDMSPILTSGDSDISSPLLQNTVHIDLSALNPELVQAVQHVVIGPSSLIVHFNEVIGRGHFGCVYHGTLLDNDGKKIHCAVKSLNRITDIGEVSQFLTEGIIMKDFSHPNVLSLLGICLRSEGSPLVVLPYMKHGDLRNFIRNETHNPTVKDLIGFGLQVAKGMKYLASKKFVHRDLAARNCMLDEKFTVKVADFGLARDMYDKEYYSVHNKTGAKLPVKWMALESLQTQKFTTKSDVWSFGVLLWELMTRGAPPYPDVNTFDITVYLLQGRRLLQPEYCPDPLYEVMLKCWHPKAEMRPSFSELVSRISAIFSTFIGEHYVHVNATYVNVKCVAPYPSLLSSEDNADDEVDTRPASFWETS
Procedure: as §1

NPM-ALK = biological target: T4, NPM-ALK (Homo sapiens, UniProt Q9UM73); test: ALK Cellular Assay (phospho-NPM-ALK immunoblot / ALK tyrosine phosphorylation ELISA); assay type: cell-based
T4 construct: a fusion protein consisting of nucleophosmin (NMP) and the intracellular domain of ALK; the other entry of the earlier key: NPM1 (P06748, Nucleophosmin)
T4 sequence (Q9UM73 with tags, fused parts or gaps): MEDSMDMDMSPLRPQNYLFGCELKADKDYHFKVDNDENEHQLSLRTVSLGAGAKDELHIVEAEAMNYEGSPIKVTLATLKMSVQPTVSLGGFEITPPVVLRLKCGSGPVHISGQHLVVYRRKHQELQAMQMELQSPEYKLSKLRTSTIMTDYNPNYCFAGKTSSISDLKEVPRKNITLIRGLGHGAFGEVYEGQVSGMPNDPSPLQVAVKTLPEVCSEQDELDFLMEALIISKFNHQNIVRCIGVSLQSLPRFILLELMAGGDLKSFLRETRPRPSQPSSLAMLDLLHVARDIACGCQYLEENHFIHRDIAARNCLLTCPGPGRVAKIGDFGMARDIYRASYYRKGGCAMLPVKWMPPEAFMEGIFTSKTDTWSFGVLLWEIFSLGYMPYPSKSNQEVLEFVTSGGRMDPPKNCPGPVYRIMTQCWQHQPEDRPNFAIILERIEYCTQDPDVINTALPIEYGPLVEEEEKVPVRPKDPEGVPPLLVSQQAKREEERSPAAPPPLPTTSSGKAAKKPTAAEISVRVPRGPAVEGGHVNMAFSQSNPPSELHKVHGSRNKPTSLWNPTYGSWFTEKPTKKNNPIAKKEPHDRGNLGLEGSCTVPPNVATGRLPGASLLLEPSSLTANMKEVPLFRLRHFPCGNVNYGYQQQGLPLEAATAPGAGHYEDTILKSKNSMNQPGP
In short: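 Compound-treated cells lysed; phospho-NPM-ALK (Y664) and total ALK detected by immunoblot with ECL and quantified by densitometry. Alternatively, an ELISA captured ALK from lysates overnight at 4 °C, detected anti-phospho-ALK (Y664) with alkaline phosphatase and a 4-MeUP fluorogenic read-out.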

T1 sequence (P08581 25-1390): as the sequence (P08581 25-1390) above

Fc1ccc(F)c(CN2CCNc3ncc(-c4ccnc(N5CCOCC5)c4)cc32)c1Cl [Example 186, 1-(2-Chloro-3,6-difluorobenzyl)-7-(2-morpholin-4-yl-pyridin-4-yl)-1,2,3,4-tetrahydropyrido[2,3-b]pyrazine]
inhibition at 1 µM ([1]; HT-29, 1 μM compound, read-out: c-Met autophosphorylation inhibition score, HT29 Cells (1 μM)): 26 to 50% | inhibition at 3 µM ([1]; HT-29, 3 μM compound, read-out: c-Met autophosphorylation inhibition score, HT29 Cells (3 μM)): 26 to 50% | IC50 [2]: 1000 to 10000 nM | IC50 [3]: < 100 nM | melting point: 157 °C | inhibition at 1 µM ([4]; 1 μM compound, read-out: c-Met autophosphorylation inhibition score, GTL-16 Cells (1 μM)): 0 to 25% | inhibition at 3 µM ([4]; 3 μM compound, read-out: c-Met autophosphorylation inhibition score, GTL-16 Cells (3 μM)): 0 to 25% | IC50 (NPM-ALK): ≤ 250 nM

Source: patent publication US7601716B2, “Pyridopyrazines and derivatives thereof as ALK and c-Met inhibitors” (Cephalon, Inc., priority 2006, dated 2009)
